According to PubChem BioAssay (NCI):
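Cells were grown in 96-well plates and exposed to each compound for 48 hours at five concentrations; endpoints were interpolated linearly between bracketing concentrations, or set to the highest concentration if not reached. Here, GI50 denotes the concentration required for 50% inhibition of growth. TGI denotes the concentration required for complete inhibition of growth.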

What was measured:
Test in all cases: growth of human tumour cells (NCI), 48 h
HS 578T breast = tested on: HS 578T breast
MDA-MB-231 breast = tested on: MDA-MB-231 breast
SR leukemia = tested on: SR leukemia
SF-539 CNS = tested on: SF-539 CNS
T-47D breast = tested on: T-47D breast
LOX IMVI melanoma = tested on: LOX IMVI melanoma
TK-10 renal = tested on: TK-10 renal
SK-MEL-5 melanoma = tested on: SK-MEL-5 melanoma
DU-145 prostate = tested on: DU-145 prostate
MDA-MB-435 = tested on: MDA-MB-435
OVCAR-8 ovarian = tested on: OVCAR-8 ovarian
SNB-19 CNS = tested on: SNB-19 CNS
M14 melanoma = tested on: M14 melanoma
SK-OV-3 ovarian = tested on: SK-OV-3 ovarian
SK-MEL-28 melanoma = tested on: SK-MEL-28 melanoma
HOP-92 NSCLC = tested on: HOP-92 NSCLC
PC-3 prostate = tested on: PC-3 prostate
786-0 renal = tested on: 786-0 renal
SN12C renal = tested on: SN12C renal
ACHN renal = tested on: ACHN renal
MDA-MB-468 breast = tested on: MDA-MB-468 breast
SF-295 CNS = tested on: SF-295 CNS
RPMI-8226 leukemia = tested on: RPMI-8226 leukemia
SF-268 CNS = tested on: SF-268 CNS
CAKI-1 renal = tested on: CAKI-1 renal
SNB-75 CNS = tested on: SNB-75 CNS
HCC-2998 colon = tested on: HCC-2998 colon
A498 renal = tested on: A498 renal
U251 CNS = tested on: U251 CNS
NCI-H23 lung = tested on: NCI-H23 lung
SK-MEL-2 melanoma = tested on: SK-MEL-2 melanoma
OVCAR-4 ovarian = tested on: OVCAR-4 ovarian
NCI-H460 lung = tested on: NCI-H460 lung
KM12 colon = tested on: KM12 colon
BT-549 breast = tested on: BT-549 breast
UACC-257 melanoma = tested on: UACC-257 melanoma
A549 NSCLC = tested on: A549 NSCLC
IGROV1 ovarian = tested on: IGROV1 ovarian
K-562 leukemia = tested on: K-562 leukemia
UACC-62 melanoma = tested on: UACC-62 melanoma
MOLT-4 leukemia = tested on: MOLT-4 leukemia
CCRF-CEM leukemia = tested on: CCRF-CEM leukemia
EKVX NSCLC = tested on: EKVX NSCLC
UO-31 renal = tested on: UO-31 renal
HCT-15 colon = tested on: HCT-15 colon
RXF 393 renal = tested on: RXF 393 renal
NCI-H522 lung = tested on: NCI-H522 lung
NCI-H226 lung = tested on: NCI-H226 lung
MCF7 breast = tested on: MCF7 breast
HOP-62 NSCLC = tested on: HOP-62 NSCLC
HCT-116 colon = tested on: HCT-116 colon
OVCAR-3 ovarian = tested on: OVCAR-3 ovarian
SW-620 colon = tested on: SW-620 colon
HT29 colon = tested on: HT29 colon
MALME-3M melanoma = tested on: MALME-3M melanoma
OVCAR-5 ovarian = tested on: OVCAR-5 ovarian
COLO 205 colon = tested on: COLO 205 colon

O=c1oc2ccc(-c3ccc(F)cc3F)cc2c(=O)n1-c1ccc(F)c(Cl)c1
GI50 (HS 578T breast): 2.42 µM
TGI (HS 578T breast): 7.45 µM
GI50 (MDA-MB-231 breast): 1.37 µM
TGI (MDA-MB-231 breast): 3.77 µM
GI50 (SR leukemia): 2.96 µM
TGI (SR leukemia): 20.5 µM
GI50 (SF-539 CNS): 3.16 µM
TGI (SF-539 CNS): 10.4 µM
GI50 (T-47D breast): 2.28 µM
TGI (T-47D breast): 6.71 µM
GI50 (LOX IMVI melanoma): 3.69 µM
TGI (LOX IMVI melanoma): 12.2 µM
GI50 (TK-10 renal): 3.11 µM
TGI (TK-10 renal): 9.19 µM
GI50 (SK-MEL-5 melanoma): 1.46 µM
TGI (SK-MEL-5 melanoma): 3.03 µM
GI50 (DU-145 prostate): 4.12 µM
TGI (DU-145 prostate): 25.3 µM
GI50 (MDA-MB-435): 2.58 µM
TGI (MDA-MB-435): 7.95 µM
GI50 (OVCAR-8 ovarian): 3.55 µM
TGI (OVCAR-8 ovarian): 25.4 µM
GI50 (SNB-19 CNS): 3.79 µM
TGI (SNB-19 CNS): 23.8 µM
GI50 (M14 melanoma): 3.28 µM
TGI (M14 melanoma): 11.1 µM
GI50 (SK-OV-3 ovarian): 2.41 µM
TGI (SK-OV-3 ovarian): 6.33 µM
GI50 (SK-MEL-28 melanoma): 3.29 µM
TGI (SK-MEL-28 melanoma): 12.7 µM
GI50 (HOP-92 NSCLC): 0.808 µM
TGI (HOP-92 NSCLC): 4.78 µM
GI50 (PC-3 prostate): 3.18 µM
TGI (PC-3 prostate): 13.7 µM
GI50 (786-0 renal): 2.38 µM
TGI (786-0 renal): 7.2 µM
GI50 (SN12C renal): 2.16 µM
TGI (SN12C renal): 8.67 µM
GI50 (ACHN renal): 3.06 µM
TGI (ACHN renal): 10.1 µM
GI50 (MDA-MB-468 breast): 2.25 µM
TGI (MDA-MB-468 breast): 5.84 µM
GI50 (SF-295 CNS): 2.68 µM
TGI (SF-295 CNS): 7.72 µM
GI50 (RPMI-8226 leukemia): 1.62 µM
TGI (RPMI-8226 leukemia): 6.62 µM
GI50 (SF-268 CNS): 2.69 µM
TGI (SF-268 CNS): 11.6 µM
GI50 (CAKI-1 renal): 1.72 µM
TGI (CAKI-1 renal): 5.11 µM
GI50 (SNB-75 CNS): 1.59 µM
TGI (SNB-75 CNS): 5.77 µM
GI50 (HCC-2998 colon): 3.42 µM
TGI (HCC-2998 colon): 12.4 µM
GI50 (A498 renal): 2.25 µM
TGI (A498 renal): 6.36 µM
GI50 (U251 CNS): 2.9 µM
TGI (U251 CNS): 11.7 µM
GI50 (NCI-H23 lung): 2.21 µM
TGI (NCI-H23 lung): 6.45 µM
GI50 (SK-MEL-2 melanoma): 2.09 µM
TGI (SK-MEL-2 melanoma): 4.56 µM
GI50 (OVCAR-4 ovarian): 3.24 µM
TGI (OVCAR-4 ovarian): 39.6 µM
GI50 (NCI-H460 lung): 2.93 µM
TGI (NCI-H460 lung): 9.93 µM
GI50 (KM12 colon): 2.97 µM
TGI (KM12 colon): 9.62 µM
GI50 (BT-549 breast): 1.8 µM
TGI (BT-549 breast): 4.14 µM
GI50 (UACC-257 melanoma): 2.07 µM
TGI (UACC-257 melanoma): 6.51 µM
GI50 (A549 NSCLC): 2.87 µM
TGI (A549 NSCLC): 15 µM
GI50 (IGROV1 ovarian): 3.49 µM
TGI (IGROV1 ovarian): 17.4 µM
GI50 (K-562 leukemia): 2.12 µM
TGI (K-562 leukemia): > 100 µM
GI50 (UACC-62 melanoma): 1.88 µM
TGI (UACC-62 melanoma): 5.01 µM
GI50 (MOLT-4 leukemia): 3.83 µM
TGI (MOLT-4 leukemia): 45.1 µM
GI50 (CCRF-CEM leukemia): 3.69 µM
TGI (CCRF-CEM leukemia): 35.4 µM
GI50 (EKVX NSCLC): 3 µM
TGI (EKVX NSCLC): 21.3 µM
GI50 (UO-31 renal): 2.4 µM
TGI (UO-31 renal): 9.98 µM
GI50 (HCT-15 colon): 3.17 µM
TGI (HCT-15 colon): 14.9 µM
GI50 (RXF 393 renal): 1.77 µM
TGI (RXF 393 renal): 5.67 µM
GI50 (NCI-H522 lung): 1.85 µM
TGI (NCI-H522 lung): 6.39 µM
GI50 (NCI-H226 lung): 1.98 µM
TGI (NCI-H226 lung): 7.01 µM
GI50 (MCF7 breast): 3.27 µM
TGI (MCF7 breast): 56.9 µM
GI50 (HOP-62 NSCLC): 2.38 µM
TGI (HOP-62 NSCLC): 6.66 µM
GI50 (HCT-116 colon): 3.01 µM
TGI (HCT-116 colon): 10.1 µM
GI50 (OVCAR-3 ovarian): 3.13 µM
TGI (OVCAR-3 ovarian): 11.9 µM
GI50 (SW-620 colon): 3.43 µM
TGI (SW-620 colon): 13 µM
GI50 (HT29 colon): 9.51 µM
TGI (HT29 colon): 27.3 µM
GI50 (MALME-3M melanoma): 2.03 µM
TGI (MALME-3M melanoma): 5.65 µM
GI50 (OVCAR-5 ovarian): 3.68 µM
TGI (OVCAR-5 ovarian): 20.6 µM
GI50 (COLO 205 colon): 12.3 µM
TGI (COLO 205 colon): 26.2 µM
